From ChEMBL document CHEMBL1201862, “PubChem BioAssay data set” (2004) come the findings set out here.

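A five-concentration, 48-hour dose response in 96-well plates underlies each endpoint, interpolated linearly between surrounding concentrations. At the GI50, growth is halved.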 The source made the active and inactive calls. Rule as the data show it: active = GI50 up to about 1.1 µM and inactive = higher. Some results are limits rather than exact numbers.

Some test systems named below: SR; SF-539; HCT-15; SK-OV-3; OVCAR-5; UO-31; M19-MEL; SK-MEL-5; CAKI-1; CCRF-CEM; NCI-H460; HCT-116; HOP-62; TK-10; OVCAR-4; LOX IMVI; HCC 2998; MDA-N; DU-145; T47D.
Assay in all cases: NCI anticancer screen, dose series, 48 h

In the case of `COc1ccc([C@H]2CC(=O)NCCCCN2)cc1`, the GI50 with SR is > 100 µM (inactive); with SF-539, > 100 µM (inactive); in the assay with HCT-15, greater than 100 µM; in the assay with SK-OV-3, > 100 µM (inactive); in the assay on OVCAR-5, > 100 µM (inactive); with UO-31, > 100 µM (inactive). The GI50 with M19-MEL, with SK-MEL-5, in the assay on CAKI-1, with CCRF-CEM, with NCI-H460 and in the assay on HCT-116 was > 100 µM (inactive) each time. The GI50 in the assay on HOP-62, in the assay on TK-10 and in the assay with OVCAR-4 was > 100 µM (inactive) in each case.
For `CCN(CC)CCn1c2ccccc2c(=O)c2c(OC)ccc(OC)c21`, the GI50 in the assay on SR is 32.2 µM (inactive); in the assay with SF-539 it was 39.1 µM (inactive); in the assay with HCT-15, 57.5 µM; in the assay with SK-OV-3 it was > 10 µM (inactive); in the assay on OVCAR-5, 99.5 µM (inactive); with UO-31, 43.9 µM (inactive). Moreover, the GI50 in the assay on LOX IMVI was 36.5 µM (inactive); in the assay with M19-MEL, 65 µM (inactive); in the assay on CAKI-1, 68.5 µM (inactive); with CCRF-CEM it was 46.6 µM (inactive); in the assay on NCI-H460 it was 41.9 µM (inactive); in the assay on HCT-116 it was 37.9 µM (inactive). In addition, the GI50 in the assay with HOP-62 and with OVCAR-4 was > 100 µM (inactive) each time.
With `Cc1ccc(NC(=O)CCC(CC(=O)C(C)(C)C)=NNC(=O)C(=O)NN)cc1C`, the GI50 with SF-539 is > 100 µM (inactive); in the assay on HCT-15, greater than 100 µM; in the assay with SK-OV-3, > 100 µM (inactive); with OVCAR-5, > 100 µM (inactive); in the assay on UO-31, > 100 µM (inactive); in the assay on LOX IMVI, > 100 µM (inactive). Further, the GI50 with M19-MEL, in the assay with SK-MEL-5, in the assay on HCC 2998, in the assay with CAKI-1, with CCRF-CEM and with NCI-H460 was > 100 µM (inactive) each time. For the same molecule, the GI50 with HOP-62, with TK-10 and in the assay with OVCAR-4 was > 100 µM (inactive) each time.
`CCCCCCCCCCCCn1[nH]c(C)c(C(=S)SCCCCCCCC)c1=O`: the GI50 with SF-539 is 73.8 µM (inactive); in the assay with HCT-15, 21 µM; in the assay on SK-OV-3, > 93.1 µM (inactive); in the assay on OVCAR-5, > 100 µM (inactive); in the assay on UO-31, 60.3 µM (inactive); in the assay with LOX IMVI it was 48.8 µM (inactive). Besides, the GI50 in the assay with M19-MEL was 23.6 µM (inactive); in the assay on SK-MEL-5, 49 µM (inactive); in the assay on HCC 2998, > 96.6 µM (inactive); with CAKI-1, 32.1 µM (inactive); with CCRF-CEM, 28.1 µM (inactive); with NCI-H460 it was 61.4 µM (inactive). Besides, the GI50 in the assay on HCT-116 is 29.6 µM (inactive); in the assay with HOP-62, 50.1 µM (inactive); in the assay on TK-10, 64.6 µM (inactive); in the assay with OVCAR-4, 95.5 µM (inactive).
Consider `Cc1ccc(/N=N/c2ccc(N(CCC#N)CCC#N)cc2C)c(Br)c1`, for which the GI50 in the assay with SF-539 was 14.4 µM (inactive); in the assay with HCT-15, 2.78 µM; in the assay with SK-OV-3, 10.3 µM (inactive); in the assay with OVCAR-5 it was 56 µM (inactive); in the assay with UO-31, 16.9 µM (inactive); in the assay on LOX IMVI, 3.33 µM (inactive). Also, the GI50 in the assay with M19-MEL is 25.4 µM (inactive); with SK-MEL-5, 16.3 µM (inactive); with HCC 2998, 5.28 µM (inactive); with CAKI-1, 2.38 µM (inactive); in the assay on CCRF-CEM, 5.85 µM (inactive); with HOP-62, 16.6 µM (inactive). The GI50 is 16.7 µM (inactive) in the assay with TK-10 and 20.4 µM (inactive) with OVCAR-4.
In the case of `COc1ccc(/C=C/C(=O)c2sc(N)nc2C)cc1`, the GI50 was > 100 µM (inactive) in the assay on SF-539; greater than 100 µM in the assay on HCT-15; > 100 µM (inactive) with SK-OV-3; > 100 µM (inactive) with OVCAR-5; > 100 µM (inactive) with UO-31; > 100 µM (inactive) with LOX IMVI. Also, the GI50 in the assay on M19-MEL, with SK-MEL-5, in the assay with HCC 2998, with CAKI-1, with CCRF-CEM and in the assay with NCI-H460 was > 100 µM (inactive) in each case. Moreover, the GI50 in the assay on HOP-62 and with TK-10 was > 100 µM (inactive) throughout.
On to `O=C(/C=C/c1ccc(Cl)c(Cl)c1)c1cccc2ccccc12`, for which the GI50 in the assay with SF-539 was 2.96 µM (inactive); in the assay with HCT-15 it was 2.54 µM; in the assay with SK-OV-3 it was 20.3 µM (inactive); in the assay on OVCAR-5 it was 13.8 µM (inactive); in the assay on UO-31, 19.6 µM (inactive); with M19-MEL, 11.7 µM (inactive). For the same molecule, the GI50 is 19.1 µM (inactive) in the assay on SK-MEL-5; 10.4 µM (inactive) in the assay on HCC 2998; 7.36 µM (inactive) in the assay on CAKI-1; 2.53 µM (inactive) in the assay with CCRF-CEM; 5.81 µM (inactive) in the assay on NCI-H460; 3.23 µM (inactive) in the assay with HCT-116. Besides, the GI50 with HOP-62 was 17 µM (inactive); with TK-10, 16.8 µM (inactive); in the assay on OVCAR-4, 7.64 µM (inactive).
`Cc1csc(CCC(N)C(=O)O)n1` (configuration not stated): the GI50 was > 100 µM (inactive) in the assay on SF-539; greater than 100 µM with HCT-15; > 100 µM (inactive) with SK-OV-3; > 100 µM (inactive) with UO-31; > 100 µM (inactive) in the assay on LOX IMVI; > 100 µM (inactive) with M19-MEL. Moreover, the GI50 with SK-MEL-5, in the assay on HCC 2998, in the assay on CAKI-1, in the assay on CCRF-CEM, with NCI-H460 and in the assay with HCT-116 was > 100 µM (inactive) each time. Moreover, the GI50 in the assay with TK-10 was > 100 µM (inactive).
As to `CC(=O)c1ccc2c(c1)CC1(C2)Cc2cc3c(cc2C1=O)CCC3` (configuration not stated), the GI50 with MDA-N is 14.4 µM (inactive); in the assay with SR it was 3.04 µM (inactive); in the assay with SF-539, 29.9 µM (inactive); with HCT-15, 29 µM; with SK-OV-3, 33.6 µM (inactive); in the assay with OVCAR-5, 30.6 µM (inactive). The GI50 is 24.3 µM (inactive) in the assay with DU-145; 26.1 µM (inactive) with UO-31; 17.7 µM (inactive) with LOX IMVI; 10.3 µM (inactive) in the assay on SK-MEL-5; 20.5 µM (inactive) with T47D; 18.6 µM (inactive) in the assay on HCC 2998. For the same molecule, the GI50 in the assay on CAKI-1 is 12.9 µM (inactive); in the assay with CCRF-CEM, 13.3 µM (inactive); in the assay on NCI-H460, 26.1 µM (inactive); with HCT-116, 17.5 µM (inactive); in the assay on HOP-62, 28 µM (inactive); with TK-10 it was 25.7 µM (inactive). The GI50 with OVCAR-4 is 15.1 µM (inactive).
Regarding `CCOC(=O)c1cn2c(n1)sc1cc(Cl)cc(Cl)c12`, the GI50 in the assay with MDA-N is > 100 µM (inactive); in the assay on SR it was > 100 µM (inactive); in the assay on SF-539, > 100 µM (inactive); in the assay with HCT-15, greater than 100 µM; in the assay with SK-OV-3 it was > 100 µM (inactive); in the assay on OVCAR-5 it was > 100 µM (inactive). Besides, the GI50 in the assay with DU-145, with UO-31, in the assay on LOX IMVI, in the assay with SK-MEL-5, in the assay on T47D and in the assay with HCC 2998 was > 100 µM (inactive) each time. The GI50 in the assay on CAKI-1, in the assay on CCRF-CEM, with NCI-H460, with HCT-116, in the assay with HOP-62 and in the assay with TK-10 was > 100 µM (inactive) in each case. Moreover, the GI50 with OVCAR-4 was > 100 µM (inactive).
As to `COC(=O)c1ccccc1C1CN=NC12Cc1c(C)cccc1C2=O` (configuration not stated), the GI50 was > 100 µM (inactive) in the assay on MDA-N; > 100 µM (inactive) in the assay with SR; > 100 µM (inactive) in the assay on SF-539; greater than 100 µM in the assay on HCT-15; > 100 µM (inactive) in the assay with SK-OV-3; 71.8 µM (inactive) with OVCAR-5. The GI50 in the assay on DU-145 is > 100 µM (inactive); in the assay on UO-31, 73.1 µM (inactive); with LOX IMVI it was 45.1 µM (inactive); with SK-MEL-5, 90.2 µM (inactive); in the assay with T47D, 52.7 µM (inactive); with HCC 2998, > 100 µM (inactive). Also, the GI50 in the assay on CAKI-1 was > 100 µM (inactive); in the assay with CCRF-CEM, > 100 µM (inactive); with NCI-H460, > 100 µM (inactive); with HCT-116, 69.2 µM (inactive); in the assay on HOP-62 it was > 100 µM (inactive); in the assay with TK-10, > 100 µM (inactive). Moreover, the GI50 with OVCAR-4 was > 100 µM (inactive).
As for `COC(=O)CCC(C)[C@H]1CCC2C3C(C[C@H](OC(C)=O)[C@@]21C)[C@@]1(C)CCC2(C[C@H]1C[C@H]3OC(C)=O)OOC1(CCCC1)OO2` (some centres not stated), the GI50 in the assay with MDA-N is 32.4 µM (inactive); with SR, 3.02 µM (inactive); in the assay on SF-539, > 100 µM (inactive); in the assay with HCT-15, 27.5 µM; with SK-OV-3, > 100 µM (inactive); with OVCAR-5, > 100 µM (inactive). Also, the GI50 was 27 µM (inactive) in the assay with DU-145; 10.1 µM (inactive) in the assay with UO-31; 7 µM (inactive) in the assay with LOX IMVI; 20.2 µM (inactive) with SK-MEL-5; 7.19 µM (inactive) with T47D; > 100 µM (inactive) in the assay on HCC 2998. Also, the GI50 with CAKI-1 was 12.2 µM (inactive); in the assay with CCRF-CEM, 7.89 µM (inactive); in the assay on NCI-H460 it was 6.82 µM (inactive); in the assay on HCT-116, 6.43 µM (inactive); in the assay with HOP-62, 10.3 µM (inactive); in the assay with TK-10 it was 48.3 µM (inactive). Further, the GI50 in the assay on OVCAR-4 was 12.6 µM (inactive).
For the molecule `NC(=O)N/N=C(\CC1OC(=O)c2ccccc21)c1ccco1` (configuration not stated), the GI50 in the assay with SF-539 is > 100 µM (inactive); with HCT-15, greater than 100 µM; with SK-OV-3, > 100 µM (inactive); in the assay with OVCAR-5, > 100 µM (inactive); in the assay on UO-31, > 100 µM (inactive); in the assay on LOX IMVI, > 100 µM (inactive). The GI50 in the assay on M19-MEL, with SK-MEL-5, in the assay with HCC 2998, in the assay on CAKI-1, in the assay with CCRF-CEM and in the assay with NCI-H460 was > 100 µM (inactive) each time. The GI50 in the assay with HCT-116, with TK-10 and in the assay on OVCAR-4 was > 100 µM (inactive) throughout.
